Laboratory results reported in patent publication US9012420B2, “Aptamer for chymase, and use thereof” (Ribomic Inc., priority 2009, dated 2015).
Oligonucleotides are written 5' to 3', each unit as a sugar letter and its base; * is a phosphorothioate linkage, no mark a phosphodiester; rarer units and linkages stand in square brackets, end groups in braces. Plain capitals give the bases only. r = 2'-OH (RNA); f = 2'-fluoro

B1: 4 (nucleic acid)
chain: rGrGrGrAfCrGrGfUrArGrGrArAfUfUfCrGfUfCfCrAfUfUfCfUrAfCrArGrAfUrArGrArGrAfUrArArArGfUrArGrArAfUfUfUrArAfCrArArArAfCrAfUrArGrArArGrArGfCrGrGfCfCrGfC
modifications: aptamer
B2: 14 (nucleic acid)
chain: rGrGrGrAfCrGrGfUrArGrGrArAfUfUfCfUfCrGfUfUfCfCfUrGrAfCrArGfCrAfUfUfUrGrArGrAfUrArGrAfUfUfUrArArAfCrArArAfCrGfCrAfCrAfUrArGrArArGrArGfCrGrGfCfCrGfC
modifications: aptamer
B3: 13 (nucleic acid)
chain: rGrGrGrAfCrGrGfUrArGrGrArAfUfUfCfCrGfCrArAfCfCrAfUfCfCfCrGfUrArAfCfUrAfUrGrGfUfUrArGrAfUrArGrArGfUfUrArArArArAfCfCrAfUrArGrArArGrArGfCrGrGfCfCrGfC
modifications: aptamer

Key:
[1] = biological target: T1, chymase (recombinant, manufactured by SIGMA) (Homo sapiens, UniProt P23946); experiment: Surface plasmon resonance (Biacore T100), chymase immobilized on CM5 chip, nucleic acid injected as analyte; type: binding; parameters: key to Binding activity as determined using Biacore: ++: a sequence that binds to chymase significantly more strongly than the negative control 40N; +: a sequence that binds to chymase equivalently compared with the negative control 40N; key to binding activity using Biacore: ++: significant binding to chymase than SEQ ID NO: 58 which is a negative control; +: similar binding level as SEQ ID NO: 58 which is a negative control; conditions: for binding activity using Biacore: same manner as Example 4, compared with SEQ ID NO: 58; for Binding activity as determined using Biacore: Table 4, about 4000 RU chymase immobilized, nucleic acid 0.3 μM, solution C, compared with 40N
T1 construct: purchased SIGMA; host or cells: yeast
T1 sequence (P23946 22-247): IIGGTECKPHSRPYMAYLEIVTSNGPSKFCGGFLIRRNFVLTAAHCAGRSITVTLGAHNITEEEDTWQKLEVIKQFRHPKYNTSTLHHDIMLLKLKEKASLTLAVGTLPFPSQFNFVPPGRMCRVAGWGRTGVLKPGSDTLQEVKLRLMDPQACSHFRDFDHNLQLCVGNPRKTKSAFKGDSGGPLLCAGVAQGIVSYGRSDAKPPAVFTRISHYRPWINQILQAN
Description: In another method, chymase is first immobilized onto a sensor chip, the amount immobilized being about 4000 RU. 20 μL of an aptamer solution for analyte, prepared at 0.01 μg/μL, is injected, and the binding of the aptamer to chymase is detected. An RNA containing a random nucleotide sequence of 30 or 40 nucleotides is used as a negative control.
Whether these nucleic acids bind to chymase was determined by the surface plasmon resonance method. Measurements were taken using Biacore T100 (manufactured by GE Healthcare) as described below. About 4000 RU of chymase (recombinant, manufactured by SIGMA) was immobilized on the sensor chip surface of a CM5 chip, using an amine coupling kit. 20 μL of each nucleic acid, prepared at 0.3 μM, as an analyte was injected at a flow rate of 20 μL/min. Solution C was used as a running buffer. The method of evaluation used was the same as Example 1.
All nucleic acids of SEQ ID NO: 58-68 were prepared by chemical synthesis. Whether these nucleic acids are bound to chymase was assessed by surface plasmon resonance method in the same manner as in Example 4. The inhibitory activity on chymase was measured in the same manner as in Example 3.
All nucleic acids of SEQ ID NOs: 73-79, 56(8), 80, 56(10), 81, 56(13)-56(14), 83-87 were prepared by chemical synthesis. Whether these nucleic acids are bound to chymase was assessed by surface plasmon resonance method in the same manner as in Example 4.
All nucleic acids of SEQ ID NO: 88-120, 121, 69, 122, 123, 70-72, 124-131 were prepared by chemical synthesis. Whether these nucleic acids are bound to chymase was assessed by surface plasmon resonance method in the same manner as in Example 4.

[2] = biological target: T2, native chymase (purified from human skin mast cell) (Homo sapiens, UniProt P23946); experiment: Chymase inhibitory activity using angiotensin I as substrate, native chymase; type: biochemical; conditions: final 50 μM, chymase 0.2-0.5 nM, 37° C. 90 min, one measurement
T2 construct: the native is chymase purified from human skin mast cell; purchased Calbiochem; host or cells: human skin mast cell
T2 sequence (P23946 22-247): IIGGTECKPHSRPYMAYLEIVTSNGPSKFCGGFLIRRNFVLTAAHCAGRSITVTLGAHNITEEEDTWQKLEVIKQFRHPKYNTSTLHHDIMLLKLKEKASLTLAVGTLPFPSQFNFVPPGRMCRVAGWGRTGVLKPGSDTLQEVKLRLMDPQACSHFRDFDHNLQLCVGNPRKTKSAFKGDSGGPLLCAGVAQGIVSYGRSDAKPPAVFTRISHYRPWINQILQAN
Description: (§1) A second method of evaluation employs a native substrate. A useful native substrate for chymase is angiotensin I. Here, His-Leu, a peptide fragment released upon degradation of angiotensin I, is fluorescently derivatized, and the fluorescence intensity therefrom is quantified.
(§2) In the assay, an enzyme reaction is carried out in 50 μL of solution C. First, 0.3-0.75 ng of chymase (recombinant, manufactured by SIGMA; or native, manufactured by Calbiochem) is diluted in solution C to obtain 5 μL chymase solution. Each nucleic acid is prepared in solution C to obtain 25 μL solutions. 5 μL of each chymase dilution and 25 μL of each nucleic acid solution are mixed, and then the mixture is incubated at 37° C. for 5 minutes. […] The angiotensin I solution is added to the mixture of chymase and nucleic acid, and the enzyme reaction is initiated. After the reaction was allowed to proceed at 37° C. for 90 minutes, 25 μL of ice-cooled 30% trichloroacetic acid solution is added to terminate the reaction. The entire mixture is centrifuged at 4° C., 14000 rpm for 10 minutes, and 30 μL of the resulting supernatant is used for the subsequent reaction for fluorescent derivatization.
(§3) After 30 μL of the supernatant is added to a 96-well plate (Black, manufactured by Costar), 15 μL of 2% o-phthalaldehyde (manufactured by SIGMA) solution in methanol and 170 μL of 0.3M NaOH solution are mixed in each well, and the plate is allowed to stand at room temperature for 10 minutes. Subsequently, 25 μL of 3M HCl solution is added to terminate the reaction. The plate is set to the microplate reader SpectraMax190 (manufactured by Molecular Devices Corporation), and the fluorescence intensity is determined at an excitation wavelength of 355 nm and a fluorescence wavelength of 460 nm.
(§4) For control, samples are treated and analyzed in the same manner in two cases: use of SEQ ID NO: 58 (negative control) and use of chymostatin, a known chymotrypsin-like serine protease inhibitor (positive control). In both cases, fluorescence intensity obtained at 0 minute reaction time serves as a blank determination. Taking the fluorescence intensity detected with the addition of an equal volume of solution C, in place of each nucleic acid, in the chymase enzyme reaction as 100%, the inhibitory rate for each test substance is calculated, and the inhibitor concentration required to cause a 50% inhibition of the enzyme activity (IC50) is determined.
(§5) For further assessment of the inhibitory activity of the nucleic acid of the present invention, the enzyme activity of chymase was measured using angiotensin I, which is a native substrate for chymase, according to the following method. Angiotensin I is converted by chymase to angiotensin II, during which a peptide fragment His-Leu is released. Since the peptide His-Leu is fluorescently derivatized by o-phthalaldehyde, its fluorescence intensity can be quantitatively measured.
(§6) The total volume of solution for an enzyme reaction in the assay was set to 50 μL, and the reaction was performed in solution C buffer. First, 0.3-0.75 ng of chymase (recombinant, (manufactured by SIGMA) or native (manufactured by Calbiochem)) was diluted with solution C to give 5 μL thereof. Here, the recombinant is chymase expressed by yeast, and the native is chymase purified from human skin mast cell. The nucleic acid was serially diluted with solution C at a concentration of 0.0027-2 μM to give 25 μL thereof. The chymase solution (5 μL) and the nucleic acid solution (25 μL) were mixed, and the mixture was incubated at 37° C. for 5 min. On the other hand, […] angiotensin I (manufactured by PEPTIDE INSTITUTE, INC.) was prepared in solution C to give […] thereof, which was incubated at 37° C. for 5 min. The angiotensin I solution was added to a mixture of chymase and nucleic acid to start an enzyme reaction. The final chymase concentration of the reaction solution was 0.2-0.5 nM, and the final substrate concentration was 50 μM. […]

[3] = biological target: T3, recombinant chymase (expressed by yeast) (Homo sapiens, UniProt P23946); experiment: Chymase inhibitory activity using angiotensin I as substrate, recombinant chymase; type: biochemical; conditions: final 50 μM, chymase 0.2-0.5 nM, 37° C. 90 min, one measurement
T3 construct: purchased SIGMA; host or cells: yeast
T3 sequence (P23946 22-247): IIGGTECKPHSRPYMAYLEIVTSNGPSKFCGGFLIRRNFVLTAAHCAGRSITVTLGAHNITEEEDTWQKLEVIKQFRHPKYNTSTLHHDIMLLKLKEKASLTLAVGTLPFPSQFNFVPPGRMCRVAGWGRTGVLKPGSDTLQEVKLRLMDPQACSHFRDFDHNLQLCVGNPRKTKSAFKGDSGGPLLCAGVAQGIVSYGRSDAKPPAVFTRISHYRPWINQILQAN
Description: as §1, §2, §3, §4, §5, §6

Molecule	binding activity using Biacore ([1]; Table 5)	IC50 [2] [nM]	binding activity using Biacore ([1]; Table 7)	IC50 [3] [nM]	Binding activity as determined using Biacore [1]	binding activity using Biacore ([1]; Table 6)
58 (GGGUUGAAGAUAUUAAAGAACCC; 2'-fluoro at CU, RNA at AG, backbone not given here) [compound 58]	+					
72 (GGGTTAGAUAGAGTUAAAAACCC; chemistry not given here) [compound 72]		120	++	65		
GGGU(F)U(F)GAAGAU(F)AU(F)U(F)AAAGAAC(F)C(F)C(F) (GGGUUGAAGAUAUUAAAGAACCC; 2'-fluoro at CU, RNA at AG, backbone not given here) [SEQ ID NO: 58]		> 1000		> 1000		
56 (GGGUUAGAUAGAGUUAAAAACCC; 2'-fluoro at CU, RNA at AG, backbone not given here) [compound 56]		508		235	++	++
71 (GGGUUAGAUAGAGTUAAAAACCC; chemistry not given here) [compound 71]		341	++	161		
54 (UAACUAUGGUUAGAUAGAGUUAAAAACCAUAGAAGA; 2'-fluoro at CU, RNA at AG, backbone not given here) [compound 54]		614		397	++	
70 (GGGTTAGAUAGAGUUAAAAACCC; chemistry not given here) [compound 70]		478	++	239		
55 (CUAUGGUUAGAUAGAGUUAAAAACCAUAG; 2'-fluoro at CU, RNA at AG, backbone not given here) [compound 55]		606		354	++	
CC(C)C[C@H](NC(=O)[C@@H](NC(=O)N[C@@H](Cc1ccccc1)C(=O)O)[C@@H]1CCN=C(N)N1)C(=O)N[C@H](C=O)Cc1ccccc1 [chymostatin, reference compound]		350 to 500		450 to 600		
65 (rGrGfCrArGrAfUrArGrArGfUfUrArArArGfCfC) [compound 65]	++	878		274		
53 (GGGUAACUAUGGUUAGAUAGAGUUAAAAACCAUAGAAGACCC; 2'-fluoro at CU, RNA at AG, backbone not given here) [compound 53]		764		446	++	
B1		31		3		
B2		63		22		
B3		74		41		
